The test system of one data set is Escherichia coli. Briefly: Antimicrobial activity against Escherichia coli DSM 1103 after 18 hrs by twofold serial dilution method. The format is functional, organism-based.
The subject of the next data set is Artemia salina. The experiment in a line: Toxicity against Artemia salina after 24 hrs. Conditions: in vivo.
In another data set the test system is Pseudomonas aeruginosa. Briefly: Antimicrobial activity against Pseudomonas aeruginosa DSM 1117 after 18 hrs by twofold serial dilution method. The format is functional, organism-based.
The subject of the next data set is Candida albicans. Briefly: Antimicrobial activity against Candida albicans DSM 1665 after 18 hrs by twofold serial dilution method. The class given is functional.
The subject of another data set is Micrococcus luteus. Briefly: Antimicrobial activity against Micrococcus luteus DSM 348 after 18 hrs by twofold serial dilution method. The class given is functional.
The test system of a further data set is Gambusia affinis. The experiment in a line: Toxicity against Gambusia affinis. The conditions noted are these: in vivo.
The next data set has as its system Bacillus subtilis. The experiment in a line: Antimicrobial activity against Bacillus subtilis DSM 347 after 18 hrs by twofold serial dilution method. The format is functional.

Values after ≈ are worked out from the molar mass of the structure shown. Active and inactive are the calls of the source. The rule behind the calls is not given here.

Turning to `CC(C)=CCC1=CC(=O)C=CC1=O`, the outcome in the data set with Escherichia coli and in the data set on Pseudomonas aeruginosa was inactive. The LC50 turned out to be 0.19 ppm in the data set on Artemia salina and 1.4 ppm in the data set with Gambusia affinis. Further, the MIC in the data set with Candida albicans (DSM 1665, 18 h) is more than 50 µg/mL; in the data set with Micrococcus luteus (DSM 348, 18 h), 25 µg/mL (≈ 142 µM); in the data set on Bacillus subtilis (DSM 347, 18 h), 25 µg/mL (≈ 142 µM).
For the compound `CC(C)CCc1cc(O)ccc1O`, the outcome in the data set with Escherichia coli and in the data set with Pseudomonas aeruginosa was inactive. Moreover, the values for the LC50 in the data set with Artemia salina and in the data set with Gambusia affinis were 0.29 ppm and 3.3 ppm, respectively. The MIC with Candida albicans (DSM 1665, 18 h) was more than 50 µg/mL; against Micrococcus luteus (DSM 348, 18 h), 6.25 µg/mL (≈ 34.7 µM); with Bacillus subtilis (DSM 347, 18 h), 12.5 µg/mL (≈ 69.3 µM).
For the compound `CC(C)=CCC/C(C)=C/CC1=CC(=O)C=CC1=O`, the outcome in the data set with Escherichia coli and in the data set on Pseudomonas aeruginosa was inactive. The LC50 in the data set with Artemia salina is recorded as 0.05 ppm; in the data set with Gambusia affinis it was 0.2 ppm. The MIC was 25 µg/mL (≈ 102 µM) in the data set on Candida albicans (DSM 1665, 18 h); 12.5 µg/mL (≈ 51.2 µM) against Micrococcus luteus (DSM 348, 18 h); 12.5 µg/mL (≈ 51.2 µM) in the data set on Bacillus subtilis (DSM 347, 18 h).
As to `CC(C)=CCC/C(C)=C/CC/C(C)=C/CC/C(C)=C/CC/C(C)=C/CC/C(C)=C/CC/C(C)=C/Cc1cc(O)ccc1O`, the outcome in the data set on Escherichia coli and in the data set on Pseudomonas aeruginosa was inactive. Besides, the values for the LC50 in the data set with Artemia salina and in the data set with Gambusia affinis were 0.91 ppm and more than 100 ppm, respectively. The MIC result in the data set on Candida albicans, in the data set with Micrococcus luteus and in the data set with Bacillus subtilis was “inactive” in each case.
Regarding GENTAMICIN, the result in the data set with Escherichia coli and with Pseudomonas aeruginosa was inactive. The MIC was 1.56 µg/mL against Micrococcus luteus and 0.78 µg/mL in the data set with Bacillus subtilis.
As to `CC(C)=CCC/C(C)=C/CC/C(C)=C/CC/C(C)=C/CC/C(C)=C/CC/C(C)=C/CC/C(C)=C/CC1=CC(=O)C=CC1=O`, the result with Escherichia coli and in the data set with Pseudomonas aeruginosa was inactive. Further, the results for the LC50 with Artemia salina and in the data set on Gambusia affinis were 1.26 ppm and more than 100 ppm, respectively. Further, the MIC result with Candida albicans, in the data set with Micrococcus luteus and with Bacillus subtilis was “inactive” throughout.
Regarding `CC1=CC(=O)C=CC1=O` [Cresoquinone], the outcome in the data set on Escherichia coli and in the data set with Pseudomonas aeruginosa was inactive. Besides, the LC50 in the data set on Artemia salina is reported as 1.06 ppm; with Gambusia affinis it was 5.4 ppm. Moreover, the MIC is more than 50 µg/mL in the data set with Candida albicans (DSM 1665, 18 h); more than 50 µg/mL in the data set on Micrococcus luteus (DSM 348, 18 h); 25 µg/mL (≈ 205 µM) in the data set on Bacillus subtilis (DSM 347, 18 h).
For the compound `Cc1cc(O)ccc1O` [METHYLHYDROQUINONE], the result in the data set on Escherichia coli and with Pseudomonas aeruginosa was inactive. For the same compound, the LC50 in the data set on Artemia salina is more than 10 ppm; in the data set on Gambusia affinis, 38.5 ppm. The MIC in the data set with Candida albicans (DSM 1665, 18 h) was more than 50 µg/mL; in the data set on Micrococcus luteus (DSM 348, 18 h) it was more than 50 µg/mL; in the data set with Bacillus subtilis (DSM 347, 18 h), 25 µg/mL (≈ 201 µM).
For `Clc1ccc(COC(Cn2ccnc2)c2ccc(Cl)cc2Cl)c(Cl)c1` (configuration not stated) [MICONAZOLE], the result with Escherichia coli and with Pseudomonas aeruginosa was inactive. In addition, in the data set on Candida albicans (DSM 1665, 18 h), the MIC amounted to 1.56 µg/mL (≈ 3.75 µM).
Take `CC(C)CCCC(C)CCCC(C)CCCC(C)CCCC(C)CCCC(C)CCc1cc(O)ccc1O` (configuration not stated): the outcome with Escherichia coli and in the data set on Pseudomonas aeruginosa was inactive. Further, the LC50 in the data set on Artemia salina was more than 10 ppm; with Gambusia affinis, more than 100 ppm. The MIC entry in the data set on Candida albicans, with Micrococcus luteus and in the data set on Bacillus subtilis was “inactive” each time.
Consider `CC(C)CCCC(C)CCCC(C)CCCC(C)CCCC(C)CCCC(C)CCCC(C)CCCC(C)CCc1cc(O)ccc1O` (configuration not stated), for which the result in the data set on Escherichia coli and with Pseudomonas aeruginosa was inactive. Moreover, the LC50 in the data set on Artemia salina is more than 10 ppm; with Gambusia affinis, more than 100 ppm. Further, the MIC entry in the data set with Candida albicans, with Micrococcus luteus and in the data set on Bacillus subtilis was “inactive” in each case.
Regarding `CC(C)=CCC/C(C)=C/CC/C(C)=C/CC/C(C)=C/CC/C(C)=C/CC/C(C)=C/Cc1cc(O)ccc1O`, the result in the data set with Escherichia coli and in the data set on Pseudomonas aeruginosa was inactive. The values for the LC50 with Artemia salina and with Gambusia affinis were 0.63 ppm and more than 100 ppm, respectively. The MIC entry in the data set with Candida albicans, in the data set on Micrococcus luteus and in the data set on Bacillus subtilis was “inactive” in each case.
In the case of `CC(C)CCCC(C)CCCC(C)CCCC(C)CCc1cc(O)ccc1O` (configuration not stated), the outcome in the data set with Escherichia coli and in the data set with Pseudomonas aeruginosa was inactive. In addition, the median lethal concentration (LC50) with Artemia salina is recorded as 0.02 ppm; in the data set with Gambusia affinis, 43.6 ppm. Moreover, the MIC result in the data set on Candida albicans, with Micrococcus luteus and with Bacillus subtilis was “inactive” each time.
Regarding `CC(C)=CCC/C(C)=C/CC/C(C)=C/CC/C(C)=C/CC/C(C)=C/CC/C(C)=C/CC/C(C)=C/CC/C(C)=C/Cc1cc(O)ccc1O`, the result in the data set with Escherichia coli and with Pseudomonas aeruginosa was inactive. Moreover, the results for the LC50 in the data set with Artemia salina and in the data set on Gambusia affinis were 0.98 ppm and more than 100 ppm, respectively. In addition, the MIC entry in the data set on Candida albicans, in the data set on Micrococcus luteus and in the data set with Bacillus subtilis was “inactive” in each case.
`CC(C)=CCC/C(C)=C/CC/C(C)=C/CC/C(C)=C/CC/C(C)=C/CC/C(C)=C/CC1=CC(=O)C=CC1=O`: the result in the data set with Escherichia coli and in the data set on Pseudomonas aeruginosa was inactive. Besides, the MIC entry with Candida albicans, with Micrococcus luteus and with Bacillus subtilis was “inactive” in each case.
With `CC(C)=CCc1cc(O)ccc1O` [PRENYLHYDROQUINONE], the result in the data set on Escherichia coli and with Pseudomonas aeruginosa was inactive. In addition, the LC50 is 0.54 ppm in the data set with Artemia salina and 22.2 ppm with Gambusia affinis. Besides, the MIC against Candida albicans (DSM 1665, 18 h) was more than 50 µg/mL; against Micrococcus luteus (DSM 348, 18 h) it was 25 µg/mL (≈ 140 µM); in the data set with Bacillus subtilis (DSM 347, 18 h) it was more than 50 µg/mL.
`CC(C)=CCC/C(C)=C/Cc1cc(O)ccc1O` [GEROQUINOL]: the outcome in the data set on Escherichia coli and in the data set with Pseudomonas aeruginosa was inactive. In addition, the LC50 in the data set with Artemia salina is listed as 0.01 ppm; in the data set with Gambusia affinis it was 4.6 ppm. Also, the MIC with Candida albicans (DSM 1665, 18 h) was found to be 25 µg/mL (≈ 101 µM); against Micrococcus luteus (DSM 348, 18 h), 12.5 µg/mL (≈ 50.7 µM); against Bacillus subtilis (DSM 347, 18 h), 6.25 µg/mL (≈ 25.4 µM).
For `O=C1C=CC(=O)C=C1` [BENZOQUINONE], the outcome with Escherichia coli and in the data set on Pseudomonas aeruginosa was inactive. Moreover, the MIC with Candida albicans (DSM 1665, 18 h) is 25 µg/mL (≈ 231 µM); against Micrococcus luteus (DSM 348, 18 h), more than 50 µg/mL; in the data set on Bacillus subtilis (DSM 347, 18 h), more than 50 µg/mL.
Regarding `CC(C)=CCC/C(C)=C/CC/C(C)=C/Cc1cc(O)ccc1O`, the outcome in the data set on Escherichia coli and in the data set on Pseudomonas aeruginosa was inactive. The LC50 amounted to 0.05 ppm with Artemia salina and 3.3 ppm with Gambusia affinis. Moreover, the MIC result in the data set on Candida albicans was “inactive”. Besides, the MIC came to 12.5 µg/mL (≈ 39.7 µM) in the data set on Micrococcus luteus (DSM 348, 18 h) and 1.56 µg/mL (≈ 4.96 µM) in the data set with Bacillus subtilis (DSM 347, 18 h).
With `CC(C)=CCC/C(C)=C/CC/C(C)=C/CC/C(C)=C/CC/C(C)=C/CC/C(C)=C/CC/C(C)=C/CC/C(C)=C/CC1=CC(=O)C=CC1=O`, the result in the data set on Escherichia coli and in the data set on Pseudomonas aeruginosa was inactive. The LC50 with Artemia salina is reported as 1.45 ppm; with Gambusia affinis, more than 100 ppm. Moreover, the MIC result with Candida albicans, with Micrococcus luteus and in the data set on Bacillus subtilis was “inactive” throughout.
On to `C=C(C)[C@H]1Cc2c(ccc3c2O[C@@H]2COc4cc(OC)c(OC)cc4[C@@H]2C3=O)O1` [ROTENONE], for which the result in the data set on Escherichia coli and with Pseudomonas aeruginosa was inactive. Further, the LC50 with Gambusia affinis came to 0.03 ppm.
As to `CC(C)CCCC(C)CCc1cc(O)ccc1O` (configuration not stated), the outcome in the data set on Escherichia coli and in the data set on Pseudomonas aeruginosa was inactive. Moreover, the LC50 with Artemia salina is 0.001 ppm; with Gambusia affinis it was 0.15 ppm. Further, the MIC entry with Candida albicans is “inactive”. Besides, the MIC in the data set with Micrococcus luteus (DSM 348, 18 h) was 6.25 µg/mL (≈ 25 µM); with Bacillus subtilis (DSM 347, 18 h), 6.25 µg/mL (≈ 25 µM).
In the case of `CC(C)CCCC(C)CCCC(C)CCc1cc(O)ccc1O` (configuration not stated), the result in the data set with Escherichia coli and in the data set with Pseudomonas aeruginosa was inactive. Also, the LC50 in the data set with Artemia salina turned out to be 0.02 ppm; in the data set on Gambusia affinis, 21.3 ppm. The MIC result in the data set with Candida albicans is “inactive”. Besides, the minimum inhibitory concentration (MIC) was more than 50 µg/mL with Micrococcus luteus (DSM 348, 18 h) and more than 50 µg/mL against Bacillus subtilis (DSM 347, 18 h).
Turning to `CC1=CCC[C@H]2[C@](C)(Cc3cc(O)ccc3O)[C@@H](C)CC[C@]12C` [AVAROL], the result with Escherichia coli and in the data set on Pseudomonas aeruginosa was inactive. Also, the figures for the median lethal concentration (LC50) in the data set on Artemia salina and with Gambusia affinis were 0.18 ppm and 4.6 ppm, respectively. Further, the MIC result with Candida albicans was “inactive”. The MIC in the data set on Micrococcus luteus (DSM 348, 18 h) was more than 50 µg/mL; in the data set with Bacillus subtilis (DSM 347, 18 h), more than 50 µg/mL.
Turning to `CC(C)CCCC(C)CCCC(C)CCCC(C)CCCC(C)CCCC(C)CCCC(C)CCc1cc(O)ccc1O` (configuration not stated), the result in the data set with Escherichia coli and in the data set on Pseudomonas aeruginosa was inactive. For the same compound, the LC50 in the data set with Artemia salina is more than 10 ppm; with Gambusia affinis, more than 100 ppm. Besides, the MIC entry with Candida albicans, with Micrococcus luteus and in the data set with Bacillus subtilis was “inactive” throughout.
`Oc1ccc(O)cc1` [HYDROQUINONE]: the result with Escherichia coli and with Pseudomonas aeruginosa was inactive. The LC50 is reported as 0.35 ppm in the data set on Artemia salina and 21.5 ppm in the data set on Gambusia affinis. In addition, the MIC result with Candida albicans was “inactive”. Further, the MIC is more than 50 µg/mL in the data set with Micrococcus luteus (DSM 348, 18 h) and more than 50 µg/mL against Bacillus subtilis (DSM 347, 18 h).

The record behind these values is ChEMBL document CHEMBL1148093, “Biological effects of prenylated hydroquinones: structure-activity relationship studies in antimicrobial, brine shrimp, and fish lethality assays” (J Nat Prod, 1994).
